Measured values from patent US9284330B2 (priority 2011, dated 2016).
Where two headings read alike, the source gives them in different places.

Experiments:
acetylcholinesterase = acetylcholinesterase (Electrophorus electricus (Electric eel) (Gymnotus electricus), UniProt O42275); assay: biochemical
L-type Ca2+ channel [1] = assay: Blocking of L-type Ca2+ channel by high content screening analyzer, KCl-induced calcium ion influx in SH-SY5Y cells (Fluo-4-AM)
[2] = tested on: primary cortical neuron cells; settings: 24 h incubation
L-type Ca2+ channel [3] = assay: Blocking of L-type Ca2+ channel by patch clamp, calcium current in rat dorsal root ganglion cells; format: cell-based; settings: whole cell patch clamp

acetylcholinesterase, sequence (O42275 whole entry, looked up): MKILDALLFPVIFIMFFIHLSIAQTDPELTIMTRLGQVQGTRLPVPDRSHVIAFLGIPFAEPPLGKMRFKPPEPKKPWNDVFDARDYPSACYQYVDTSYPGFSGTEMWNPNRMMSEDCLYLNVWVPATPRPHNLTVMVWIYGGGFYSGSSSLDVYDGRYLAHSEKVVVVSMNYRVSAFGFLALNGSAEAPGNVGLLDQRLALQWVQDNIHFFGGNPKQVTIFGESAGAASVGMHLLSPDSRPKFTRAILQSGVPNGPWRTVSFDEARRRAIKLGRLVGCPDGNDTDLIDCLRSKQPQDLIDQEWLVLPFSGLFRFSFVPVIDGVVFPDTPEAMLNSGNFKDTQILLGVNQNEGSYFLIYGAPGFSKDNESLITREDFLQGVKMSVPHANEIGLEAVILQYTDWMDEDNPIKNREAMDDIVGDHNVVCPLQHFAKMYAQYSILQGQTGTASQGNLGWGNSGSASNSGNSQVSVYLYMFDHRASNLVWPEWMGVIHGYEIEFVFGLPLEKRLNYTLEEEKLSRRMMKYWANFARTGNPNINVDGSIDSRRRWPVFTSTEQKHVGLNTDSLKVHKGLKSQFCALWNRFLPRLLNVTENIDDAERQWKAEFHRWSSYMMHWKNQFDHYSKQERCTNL

| SMILES | IC50 (acetylcholinesterase) | Inhibition rate of KCl-induced calcium ion influx (L-type Ca2+ channel [1]; 10 μM compound) | Inhibition rate of KCl-induced calcium ion influx (L-type Ca2+ channel [1]; 50 μM compound) | further results |
| --- | --- | --- | --- | --- |
| C#CCOC(=O)C1=C(C)Nc2nc3c(c(N)c2C1c1cccc([N+](=O)[O-])c1)CC(C)(C)CC3 (centres unmarked) [Compound S37, 5-amino-4-(3-nitrophenyl)-2,7,7-trimethyl-1,4,6,7,8,9-hexahydrobenzo[b][1,8]naphth yridine-3-carboxylic acid propargyl ester] | 1860 nM | – | – | – |
| CCOC(=O)C1=C(C)Nc2nc3c(c(N)c2C1c1cccc(C(F)(F)F)c1)CC(C)(C)CC3 (centres unmarked) [Compound S4, 5-amino-4-(3-trifluoromethylphenyl)-2,7,7-trimethyl-1,4,6,7,8,9-hexahydrobenzo[b][1,8]naphthyridine-3-carboxylic acid ethyl ester] | 1050 nM | 64.82% | 85.17% | – |
| C=CCOC(=O)C1=C(C)Nc2nc3c(c(N)c2C1c1cccc(F)c1)CC(C)(C)CC3 (centres unmarked) [Compound S35, 5-amino-4-(3-fluorophenyl)-2,7,7-trimethyl-1,4,6,7,8,9-hexahydrobenzo[b][1,8]napht hyridine-3-carboxylic acid allyl ester] | 1790 nM | – | – | – |
| CCC1=C(C(=O)OC)C(c2cccc([N+](=O)[O-])c2)c2c(nc3c(c2N)CC(C)(C)CC3)N1 (centres unmarked) [Compound S25, 5-amino-7,7-dimethyl-4-(3-nitrophenyl)-2-ethyl-1,4,6,7,8,9-hexahydrobenzo[b][1,8]n aphthyridine-3-carboxylic acid methyl ester] | 842 nM | 1.02% | 63.52% | – |
| COCCOC(=O)C1=C(C)Nc2nc3c(c(N)c2C1c1ccccc1Cl)CC(C)(C)CC3 (centres unmarked) [Compound S10, 5-amino-4-(2-chlorphenyl)-2,7,7-trimethyl-1,4,6,7,8,9-hexahydrobenzo[b][1,8]naphth yridine-3-carboxylic acid methoxylethyl ester] | 971 nM | 49.97% | 83.29% | Relative neuron activity (average) ([2]; 0.01 μM): 120.7%; Relative neuron activity (average) ([2]; 0.1 μM): 96.3%; Relative neuron activity (average) ([2]; 1 μM): 70.3% |
| CCOC(=O)C1=C(C)Nc2nc3c(c(N)c2C1c1cccc(F)c1)CC(C)(C)CC3 (centres unmarked) [Compound S34, 5-amino-2,7,7-trimethyl-4-(3-fluorophenyl)-1,4,6,7,8,9-hexahydrobenzo[b][1,8]napht hyridine-3-carboxylic acid ethyl ester] | 1780 nM | 39.53% | 88.96% | – |
| CCOC(=O)C1=C(C)N(C)c2nc3c(c(N)c2C1c1ccccc1Cl)CC(C)(C)CC3 (centres unmarked) [Compound S38, 5-amino-4-(2-chlorphenyl)-1,2,7,7-tetramethyl-1,4,6,7,8,9-hexahydrobenzo[b][1, 8]na phthyridine-3-carboxylic acid ethyl ester] | – | 17.97% | 51.19% | – |
| CC1=C(C(=O)OC2CCC2)C(c2ccccc2F)c2c(nc3c(c2N)CC(C)(C)CC3)N1 (centres unmarked) [Compound S9, 5-amino-4-(2-fluorophenyl)-2,7,7-trimethyl-1,4,6,7,8,9-hexahydrobenzo[b][1,8]napht hyridine-3-carboxylic acid cyclobutyl ester] | 919 nM | 5.22% | 85.01% | – |
| C#CCOC(=O)C1=C(C)Nc2nc3c(c(N)c2C1c1cccc(F)c1)CC(C)(C)CC3 (centres unmarked) [Compound S36, 5-amino-2,7,7-trimethyl-4-(3-fluorophenyl)-1,4,6,7,8,9-hexahydrobenzo[b][1,8]napht hyridine-3-carboxylic acid propargyl ester] | 1930 nM | – | – | – |
| CC1=C(C(=O)OCCN(C)C)C(c2ccccc2)c2c(nc3c(c2N)CC(F)(F)CC3)N1 (centres unmarked) [Compound S29, 5-amino-7,7-difluoro-2-methyl-4-phenyl-1,4,6,7,8,9-hexahydrobenzo[b][1,8]naphthyr idine-3-carboxylic acid-2-(dimethylamino) ethyl ester] | 45 nM | 17.93% | 57.19% | Inhibition rate of L-type Ca2+ channel current (L-type Ca2+ channel [3]; 100 nmol/L compound): 11.64%; Inhibition rate of L-type Ca2+ channel current (L-type Ca2+ channel [3]; 1000 nmol/L compound): 23.76% |
| COC(=O)C1=C(C)Nc2nc3c(c(N)c2C1c1ccccc1)CN(C)CC3 (centres unmarked) [Compound S12, 5-amino-2,7-dimethyl-4-phenyl-1,4,6,7,8,9-hexahydropyrido[2,3-b][1,6]naphthyridine-3-carboxylic acid methyl ester] | – | 34.59% | 52.61% | – |
| CC1=C(C(=O)OC(C)C)C(c2cccc(Cl)c2)c2c(nc3c(c2N)CC(C)(C)CC3)N1 (centres unmarked) [Compound S33, 5-amino-2,7,7-trimethyl-4-(3-chlorphenyl)-1,4,6,7,8,9-hexahydrobenzo[b][1,8]naphth yridine-3-carboxylic acid isopropyl ester] | 1840 nM | – | – | – |
| CCOC(=O)C1=C(C)Nc2nc3c(c(N)c2C1c1ccc(C(F)(F)F)cc1)CC(C)CC3 (centres unmarked) [Compound S2, 5-amino-2,7-dimethyl-4-(4-trifluoromethylphenyl)-1,4,6,7,8,9-hexahydrobenzo[b][1,8]naphthyridine-3-carboxylic acid ethyl ester] | 558 nM | 38.79% | 94.01% | – |
| COC(=O)C1=C(C)NC(C)=C(C(=O)OC)C1c1ccccc1[N+](=O)[O-] [Nifedipine, reference compound] | – | – | – | Inhibition rate of L-type Ca2+ channel current (L-type Ca2+ channel [3]; 100 nmol/L compound): 22.48%; Inhibition rate of L-type Ca2+ channel current (L-type Ca2+ channel [3]; 1000 nmol/L compound): 36.15% |
| CCOC(=O)C1=C(C)Nc2nc3c(c(N)c2C1c1cccc([N+](=O)[O-])c1)CC(F)(F)CC3 (centres unmarked) [Compound S19, 5-amino-7,7-difluoro-2-methyl-4-(3-nitrophenyl)-1,4,6,7,8,9-hexahydrobenzo[b][1,8]naphthyridine-3-carboxylic acid ethyl ester] | 333 nM | – | – | Inhibition rate of L-type Ca2+ channel current (L-type Ca2+ channel [3]; 100 nmol/L compound): 4.12%; Inhibition rate of L-type Ca2+ channel current (L-type Ca2+ channel [3]; 1000 nmol/L compound): 26.29% |
| COC(=O)C1=C(C)Nc2nc3c(c(N)c2C1c1ccccc1)CC(C)(C)CC3 (centres unmarked) [Compound S7, 5-amino-4-phenyl-2,7,7-trimethyl-1,4,6,7,8,9-hexahydrobenzo[b][1,8]naphthyridine-3-carboxylic acid methyl ester] | 1380 nM | 1.01% | 72.98% | – |
| CCOC(=O)C1=C(C)Nc2nc3c(c(N)c2C1c1ccccc1OC)CC(C)CC3 (centres unmarked) [Compound S28, 5-amino-4-(2-methoxylphenyl)-2,7-dimethyl-1,4,6,7,8,9-hexahydrobenzo[b][1,8]naph thyridine-3-carboxylic acid ethyl ester] | 136 nM | – | – | – |
| COC(=O)C1=C(C)Nc2nc3c(c(N)c2C1c1cccc([N+](=O)[O-])c1)CC(C)(C)CC3 (centres unmarked) [Compound S30, 5-amino-2,7,7-trimethyl-4-(3-nitrophenyl)-1,4,6,7,8,9-hexahydrobenzo[b][1,8]naphth yridine-3-carboxylic acid methyl ester] | 5960 nM | 29.44% | 80.73% | – |
| CC1=C(C(=O)OCC2CC2)C(c2ccccc2Cl)c2c(nc3c(c2N)CC(C)(C)CC3)N1 (centres unmarked) [Compound S11, 5-amino-4-(2-chlorphenyl)-2,7,7-trimethyl-1,4,6,7,8,9-hexahydrobenzo[b][1,8]naphth yridine-3-carboxylic acid cyclopropylmethyl ester] | – | 54.69% | 75.06% | – |
| COC(=O)C1=C(C)Nc2nc3c(c(N)c2C1c1cccc([N+](=O)[O-])c1)CCC(C)=C3 (centres unmarked) [Compound S18, 5-amino-2,8-dimethyl-4-(3-nitrophenyl)-1,4,6,7-tetrahydrobenzo[b][1,8]naphthyridine-3-carboxylic acid methyl ester] | 504 nM | – | – | – |
| CCOC(=O)C1=C(C)Nc2nc3c(c(N)c2C1c1cccc([N+](=O)[O-])c1)CC(Cl)(Cl)CC3 (centres unmarked) [Compound S20, 5-amino-7,7-dichloro-2-methyl-4-(3-nitrophenyl)-1,4,6,7,8,9-hexahydrobenzo[b][1,8]naphthyridine-3-carboxylic acid ethyl ester] | – | 46.88% | 99.27% | Relative neuron activity (average) ([2]; 0.01 μM): 103.9%; Relative neuron activity (average) ([2]; 0.1 μM): 98.5%; Relative neuron activity (average) ([2]; 1 μM): 47.5% |
| C=CCOC(=O)C1=C(C)Nc2nc3c(c(N)c2C1c1cccc([N+](=O)[O-])c1)CC(C)(C)CC3 (centres unmarked) [Compound S5, 5-amino-4-(3-nitrophenyl)-2,7,7-trimallyl1,4,6,7,8,9-hexahydrobenzo[b][1,8]naphthyr idine-3-carboxylic acid allyl ester] | 770 nM | 14.40% | 62.43% | – |
| CCOC(=O)C1=C(C)Nc2nc3c(c(N)c2C1c1cccc([N+](=O)[O-])c1)CC(C)(C)CC3 (centres unmarked) [Compound S31, 5-amino-2,7,7-trimethyl-4-(3-nitrophenyl)-1,4,6,7,8,9-hexahydrobenzo[b][1,8]naphth yridine-3-carboxylic acid ethyl ester] | 3030 nM | 19.10% | 93.34% | – |
| CC1=C(C(=O)OC(C)C)C(c2cncnc2)c2c(nc3c(c2N)CC(C)(C)CC3)N1 (centres unmarked) [Compound S26, 5-amino-2,7,7-trimethyl-4-(pyrimidin-5-yl)-1,4,6,7,8,9-hexahydrobenzo[b][1,8]napht hyridine-3-carboxylic acid isopropyl ester] | – | 30.18% | 41.41% | – |
